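Method: 48-hour compound exposure of cells in 96-well plates, five concentrations, linear interpolation of endpoints. GI50: concentration for 50% inhibition of growth.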 Active and inactive are the calls of the source. Rule as the data show it: active = GI50 up to about 1.1 µM and inactive = higher.

Holding throughout (test): NCI anticancer screen, dose series, 48 h
Assay [1] has as its system MDA-MB-435.
Assay [2] relates to SNB-75.
Assay [3] relates to NCI/ADR-RES.
Assay [4] concerns HOP-92.
For assay [5], the system named is SN12C.
Assay [6] has as its system IGROV-1.
The subject of assay [7] is SF-295.
Assay [8] relates to HL-60.
In assay [9] the test system is TK-10.
The test system of assay [10] is NCI-H522.
Assay [11] has as its system DLD-1.
Assay [12] concerns DU-145.
The subject of assay [13] is HT-29.
Assay [14] relates to Hs-578T.
The test system of assay [15] is NCI-H460.
Assay [16] concerns U-251.
The subject of assay [17] is KM12.
The subject of assay [18] is MCF7.
In assay [19] the test system is BT-549.
Assay [20] deals with EKVX.

Take `NS(=O)(=O)c1ccc(NC(=O)c2cccc3cc4ccccc4nc23)cc1`: the GI50 was 34.3 µM (inactive) in [1]; > 37.4 µM (inactive) in assay [2]; 11.8 µM (inactive) in assay [3]; 15.1 µM (inactive) in [4]; 20.8 µM (inactive) in [5]; > 78.2 µM (inactive) in assay [6]. Also, the GI50 was 16.3 µM (inactive) in assay [7]; 25.9 µM (inactive) in assay [8]; 28.2 µM (inactive) in [9]; 17.1 µM (inactive) in assay [10]; 17.1 µM (inactive) in assay [11]; > 100 µM (inactive) in assay [12]. Further, the GI50 in assay [13] was 8.3 µM (inactive); in assay [14], 8.53 µM (inactive); in assay [15], 5.02 µM (inactive); in [16], 23.4 µM (inactive); in assay [17], 11.3 µM (inactive); in assay [18], 6.68 µM (inactive). Moreover, the figures for the GI50 in [19] and in assay [20] were 42.4 µM (inactive) and > 100 µM (inactive), respectively.
Take `COc1ccccc1NC(=O)CSC(N)=O`: the GI50 is 30 µM (inactive) in [2]; > 100 µM (inactive) in assay [4]; 62.2 µM (inactive) in assay [5]; 66.5 µM (inactive) in assay [6]; 38.4 µM (inactive) in assay [7]; 0.349 µM (active) in assay [8]. The GI50 in [9] is > 100 µM (inactive); in assay [10], 33.4 µM (inactive); in assay [11] it was 42.1 µM (inactive); in assay [13], 47.2 µM (inactive); in [15], 32.7 µM (inactive); in [16] it was 25.6 µM (inactive). For the same molecule, the figures for the GI50 in [17] and in assay [20] were 49.5 µM (inactive) and 60.1 µM (inactive), respectively.
With `O=C(NCCO)c1cc2c(cn1)[nH]c1ccccc12`, the GI50 in assay [2] is 69.5 µM (inactive); in assay [4], > 100 µM (inactive); in [5], > 100 µM (inactive); in assay [6], > 100 µM (inactive); in assay [7], > 100 µM (inactive); in assay [8], > 100 µM (inactive). Moreover, the GI50 in [9] is > 100 µM (inactive); in assay [10], > 100 µM (inactive); in assay [11], 24.7 µM (inactive); in assay [13], > 100 µM (inactive); in assay [15] it was > 100 µM (inactive); in assay [16] it was > 100 µM (inactive). Moreover, the GI50 in assay [17] and in assay [20] was > 100 µM (inactive) throughout.
Turning to `Cc1oc2c(C)c3oc(=O)cc(C)c3cc2c1CN1C(=O)C2OCCOCCOCCOCCOCCO[C@H]2C1=O` (some centres undefined), the GI50 in [2], in assay [4], in assay [5], in assay [6], in assay [7] and in assay [8] was > 100 µM (inactive) each time. The GI50 in assay [9], in assay [10], in [11], in assay [13], in assay [15] and in [16] was > 100 µM (inactive) throughout. For the same molecule, the GI50 in assay [17] and in assay [20] was > 100 µM (inactive) throughout.
Consider `CC#N.O[C@@H]1CCCC[C@H]1O.O[C@@H]1CCCC[C@H]1O.[TeH2]`, for which the GI50 in [2] is > 100 µM (inactive); in assay [4] it was 26.2 µM (inactive); in assay [5], 29.1 µM (inactive); in [6] it was 41.6 µM (inactive); in assay [7], 18.6 µM (inactive); in assay [8] it was 14.6 µM (inactive). The GI50 in assay [9] was > 100 µM (inactive); in [10], 37.2 µM (inactive); in assay [11], 32.2 µM (inactive); in [13], 28.2 µM (inactive); in assay [15], 2.99 µM (inactive); in assay [16], 13.9 µM (inactive). Further, the GI50 in [17] was 42.7 µM (inactive).
With `CCCc1nc(NC#N)nc(C(=O)NC23CC4CC(CC(C4)C2)C3)c1C`, the GI50 in assay [2], in [4], in assay [5], in assay [6], in assay [7] and in assay [8] was > 100 µM (inactive) in each case. Further, the GI50 in assay [9], in assay [10], in assay [11], in assay [13], in assay [15] and in [16] was > 100 µM (inactive) throughout. In addition, the GI50 in assay [17] and in [20] was > 100 µM (inactive) throughout.
